One experiment deals with human plasma kallikrein (Homo sapiens, UniProt P03952). As to the kind of experiment: Kallikrein inhibition assay utilizing quenched AMC peptide substrate. Format: biochemical. The conditions noted are these: read-out: Plasma kallikrein (PK) IC50. The protocol:
Biological Example 2: Kallikrein Inhibition Assay
Utilizing Quenched AMC Peptide Substrate
A fluorescence intensity-based assay was used to monitor inhibition of human plasma kallikrein. The peptide substrate, Z-Gly-Pro-Arg-AMC (Purchased from Bachem; Catalog #1-1150) was chosen based on its relatively low KM for kallikrein which enables running the assay at lower substrate concentrations to control background fluorescence. The kinetic parameters for this substrate were determined by fitting titration data to the Michaelis-Menten equation yielding a KM=40 μM, kcat=0.76 s^−1, and kcat/KM=18932 M^−1s^−1.
Kallikrein FLINT assay was used with the following Z-Gly-Pro-Arg-AMC assay buffer: 50 mM Tris, pH 7.5, 100 mM NaCl, 5 mM CaCl2, 0.1 mg/mL BSA, 0.03% CHAPS. Assay buffer was prepared by mixing all ingredients fresh. 2× Z-Gly-Pro-Arg-AMC peptide substrate was prepared by diluting 10 mM stock into 1× assay buffer for a 100 μM working concentration (50 μM final concentration). The 2× kallikrein stock solution was prepared by diluting 14.76 μM stock in 1× assay buffer for a 4 nM working stock solution (2 nM final concentration).
Test compound(s) were run in an 11-point, 3-fold serial dilution with a final top compound concentration of 1 μM. Final DMSO in assay: 2% DMSO. 2 nM kallikrein and test compound were pre-incubated for 30 minutes and 50 μM substrate was then added to initiate the reaction. The assay was linear using 2 nM kallikrein greater than 30 minutes. More specifically, the assay was run as follows: • 100 nL of 1 mM test compound was dispensed into a black 384-well non-binding Greiner BioOne 784900 plate for 10 μM final concentration with 1% DMSO final concentration; • 5 μL of 1× assay buffer was dispensed to columns 24 (low control) and 5 μL 2× human kallikrein enzyme solution was dispensed to columns 1-23 (column 23 high control); • the plate was centrifuged with a cover plate at 500 rpm for 1 min • the plate was pre-incubated for 30 minutes at room temperature with plate covered; • 5 μL of 2× Z-Gly-Pro-Arg-AMC peptide substrate was dispensed into the entire plate, columns 1-24; • the plate was centrifuged with a “cover” plate at 500 rpm for 1 min; • the plate was read kinetically monitoring fluorescence intensity on the BMG PHERAStar at room temperature, using fluorescence module F1 340 mm/440 mm.
Percent inhibition (IC50) curves were generated per compound tested, and data was analyzed using a 4-parameter logistic fit using GeneData Screener. […]

For another experiment, the target named is T1, HERG current (Homo sapiens, UniProt Q12809).
T1 construct: expressed in transfected cells; host or cells: HEK293
As to the kind of experiment: hERG assay, whole-cell voltage clamp in HEK293 cells. Format: cell-based. The conditions noted are these: HEK293 with stable transfection of HERG, 5 minutes of drug application. An excerpt: Biological Example 6: hERG Assay
HERG (human ether-à-go-go-related gene) encodes a potassium channel with biophysical properties similar to the rapidly activating delayed-rectifier K^+ current (IKr) in cardiac myocytes. This IKr current contributes to the K^+ current responsible for the repolarization phase of the cardiac action potential. Blockage of this current may prolong action potential duration and cause long QT-syndrome. The development of QT prolongation can lead to the occurrence of ventricular arrhythmias such as Torsades de Pointes, which can result in sudden death. […]
Electrophysiological measurements: The membrane current of the cells was measured at distinct membrane potentials with the patch clamp technique by means of an EPC-9 patch clamp amplifier. […] The HERG current (K+-selective outward current) was determined as the maximal tail current at −40 mV after a 2 second depolarization to +60 mV. […] Thereafter test pulses were given for 5 minutes to quantify the HERG current in control conditions. […] The effect of the test compound was measured after 5 minutes of drug application. […]
Measurements: The HERG current was determined as the maximal tail current at −40 mV after a 2 second depolarization to +60 mV, starting from a holding potential of −80 mV. […]

SMILES strings stand for the structures.

T1 sequence (Q12809 whole entry): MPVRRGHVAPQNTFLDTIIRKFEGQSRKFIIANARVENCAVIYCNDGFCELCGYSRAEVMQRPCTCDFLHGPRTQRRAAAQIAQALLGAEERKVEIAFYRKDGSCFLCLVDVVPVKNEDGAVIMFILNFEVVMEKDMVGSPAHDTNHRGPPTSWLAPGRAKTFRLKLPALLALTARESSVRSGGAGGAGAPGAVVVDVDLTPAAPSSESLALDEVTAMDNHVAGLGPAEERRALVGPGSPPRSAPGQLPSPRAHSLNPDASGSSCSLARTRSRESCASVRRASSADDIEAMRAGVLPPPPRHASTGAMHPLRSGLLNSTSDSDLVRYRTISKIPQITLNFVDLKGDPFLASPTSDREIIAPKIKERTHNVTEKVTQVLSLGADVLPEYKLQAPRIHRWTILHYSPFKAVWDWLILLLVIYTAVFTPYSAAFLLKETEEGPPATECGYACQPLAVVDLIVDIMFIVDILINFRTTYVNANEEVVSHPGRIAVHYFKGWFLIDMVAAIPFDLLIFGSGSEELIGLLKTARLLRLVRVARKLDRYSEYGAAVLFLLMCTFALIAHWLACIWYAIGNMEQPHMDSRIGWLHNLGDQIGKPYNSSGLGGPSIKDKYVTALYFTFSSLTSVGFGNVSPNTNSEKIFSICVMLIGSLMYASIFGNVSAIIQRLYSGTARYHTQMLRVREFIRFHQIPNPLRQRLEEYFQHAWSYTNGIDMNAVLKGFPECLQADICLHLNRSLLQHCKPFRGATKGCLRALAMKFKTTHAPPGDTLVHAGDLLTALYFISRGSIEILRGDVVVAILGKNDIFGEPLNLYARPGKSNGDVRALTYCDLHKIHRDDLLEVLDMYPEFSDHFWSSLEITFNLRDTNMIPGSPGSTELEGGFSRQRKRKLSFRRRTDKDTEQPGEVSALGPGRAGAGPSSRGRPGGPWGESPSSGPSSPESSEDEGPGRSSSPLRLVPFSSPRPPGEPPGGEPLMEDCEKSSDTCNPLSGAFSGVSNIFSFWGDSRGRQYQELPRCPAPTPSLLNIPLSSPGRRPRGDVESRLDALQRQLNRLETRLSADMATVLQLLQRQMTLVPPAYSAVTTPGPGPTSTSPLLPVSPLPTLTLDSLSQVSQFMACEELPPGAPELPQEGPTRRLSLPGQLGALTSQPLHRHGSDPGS
Sequence of human plasma kallikrein (P03952 391-638 limits assumed): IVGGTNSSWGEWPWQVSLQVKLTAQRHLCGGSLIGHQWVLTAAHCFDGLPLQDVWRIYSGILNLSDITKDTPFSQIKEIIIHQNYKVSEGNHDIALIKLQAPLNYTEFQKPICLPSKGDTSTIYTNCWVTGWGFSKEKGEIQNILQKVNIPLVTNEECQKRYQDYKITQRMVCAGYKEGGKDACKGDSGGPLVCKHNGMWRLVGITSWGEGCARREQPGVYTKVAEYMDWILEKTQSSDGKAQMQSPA
Sequence of human plasma kallikrein (P03952 20-390 partner limits assumed): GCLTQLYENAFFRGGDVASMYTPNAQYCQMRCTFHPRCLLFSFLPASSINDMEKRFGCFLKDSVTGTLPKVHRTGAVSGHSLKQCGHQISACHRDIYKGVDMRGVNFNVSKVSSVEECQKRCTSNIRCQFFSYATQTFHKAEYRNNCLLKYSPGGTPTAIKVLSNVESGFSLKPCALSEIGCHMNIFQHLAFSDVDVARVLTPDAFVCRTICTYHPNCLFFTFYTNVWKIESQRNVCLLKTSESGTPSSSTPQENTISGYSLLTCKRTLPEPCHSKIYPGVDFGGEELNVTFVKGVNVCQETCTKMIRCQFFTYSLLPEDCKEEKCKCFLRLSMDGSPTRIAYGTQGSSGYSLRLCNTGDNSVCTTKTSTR

Take `O=C(O)c1nccc(-c2cnc([C@@H]3CC[C@@H]4CC(c5c(-n6cnnn6)ccc(Cl)c5F)=CC(=O)N43)[nH]2)c1F` [Compound of formula (II-A), 4-(2-((3S,8aR)-7-(3-chloro-2-fluoro-6-(1H-tetrazol-1-yl)phenyl)-5-oxo-1,2,3,5,8,8a-hexahydroindolizin-3-yl)-1H-imidazol-5-yl)-3-fluoropicolinic acid]: the IC50 at human plasma kallikrein amounted to 11 nM. As for `O=C1C=C(c2c(-n3cnnn3)ccc(Cl)c2F)C[C@H]2CC[C@@H](c3ncc(-c4ccnc(CO)c4F)[nH]3)N12` [Compound of formula (I-A), (3S,8aR)-7-(3-Chloro-2-fluoro-6-(1H-tetrazol-1-yl)phenyl)-3-(5-(3-fluoro-2-(hydroxymethyl)pyridin-4-yl)-1H-imidazol-2-yl)-2,3,8,8a-tetrahydroindolizin-5(1H)-one], the IC50 against HERG current was over 30000 nM.

Source of the values: patent US12545677B2, “Compounds useful as factor XIa inhibitors” (JANSSEN PHARMACEUTICA NV, priority 2020, dated 2026).
